# In paper PMC5859730, “Dual targeting of the cancer antioxidant network with 1,4-naphthoquinone fused Gold(I) N-heterocyclic carbene complexes” (Chemical Science, 2017):
# Where two headings read alike, the source gives them in different places.
# How the values were obtained:
# [1] = Differential pulse voltammetry, quinone reduction potentials; format: physicochemical; conditions: DMSO, 0.1 M [N(nBu)4][PF6], 0.1 mM analyte, vs. SCE
# Protocol: A series of electrochemical analyses, including cyclic voltammetry (CV) and differential pulse voltammetry (DPV), were carried out with [NnBu4][PF6] in anhydrous dimethyl sulfoxide (DMSO) in order to evaluate electronic properties of compounds 1–3 and 4[H][Cl]. […] These electrochemical features were attributed to the reduction of the quinone moiety to first produce the semiquinone radical (NQ^–) and then produce the quinone dianion (NQ^2–) forms of compounds 1–3 and 4[H][Cl].[70],[71] The quinone reduction potential in 4[H][Cl] occurs at –0.38 V, the lowest of all the molecules studied, indicative of a positively charged imidazolium ring. The quinone couple at –0.42 V observed for compound 1 is ascribed to the presence of bis(NHC). The same wave in compound 3 appears at a more negative potential (–0.47 V), presumably due to greater trans effects excreted by quinone annulated NHC ligand than the metal-bound chloride. This analysis agrees well with the differences in the observed δ^13C (Au–Ccarbene) resonances for compounds 1 and 3. […]
# mM) as referenced to SCE (internal standard Fc0/+, adjusted to 0.435 V vs. SCE).
# [2] = tested on: A549 lung cancer cells; experiment: ICP-MS detection of intracellular Au (cellular uptake)
# [3] = tested on: A549 lung cancer cells; experiment: Cell proliferation (MTT assay) in A549 lung cancer cells; format: cell-based, human
# Protocol: To gauge the ability of each complex to inhibit cancer cell growth, A549 lung cancer cells were treated with 1–3, 4[H][Cl], doxorubicin, and auranofin in a dose responsive manner. Cellular vitality (i.e., mitochondrial reductase activity) was then quantified colorimetrically post treatment using 3-(4,5-dimethylthiazol-2-yl)-2,5-diphenyltetrazolium bromide (MTT assay) (Table 2, Fig. 5).
# Biological preparations and assays
# Experimental compound preparation. Stock solutions of complexes 1–3, 4[H][Cl], auranofin (Tocris Bioscience 4600), and doxorubicin (Tocris Bioscience 2252) were dissolved in DMSO (2.5–10 mM, depending on the compound and its solubility), aliquoted, and stored at -80 °C prior to use.
# Biological Materials and Cell Lines. Cell lines were obtained from the ATCC (A549 and PC-3) and Prof.
# Zahid Siddik at M.D. Anderson Cancer Center (A2780 and A2780CP). Cell culture plastic ware (i.e. T-75 flasks, treated 6-well plates, treated 96-well plates, and cell scrapers) were obtained from Fisher Scientific. Cell were cultured in RPMI 1640 culture medium (+2mM glutamine, +25mM HEPES, Corning 10041cv) supplemented with 10% heat-inactivated fetal bovine serum (RMBIO FBS-BBT) and 1X penicillin-streptomycin (Sigma p4333). Unless otherwise noted, incubators were set to 37°C and 5% CO2.
# Trypsin (HyClone SH30236.01) and 1X Phosphate Buffered Saline (HyClone SH30258.02, diluted in autoclaved deionized water) were utilized for general cell line maintenance and harvesting. Trace Metal […]
# Cell Proliferation Studies. Cells were harvested and seeded into 96-well culture plates (Costar 07-200-90) in 100µL of culture media. They were allowed to incubate overnight at 37 °C in the presence of 5% CO2. […]
# and PC-3 at 2000 cells/well. […]
# were made. To each well of a 96 well plate was added 100 µL of the appropriate solution. After a total of three days, a […] aliquot of 3 mg/mL tetrazolium dye, 3-(4,5-dimethylthiazol-2-yl)-2,5-diphenyltetrazolium bromide (Alfa Aesar L11939) was added to each well, followed by a 4 hr incubation period at 37 °C. The medium was then removed, the resulting formazan was dissolved in […] DMSO and the respective absorbances were measured at 560–650 nm using a microplate reader (Molecular Devices, Sunnyvale, CA). Absorbance values were corrected for background and then normalized to wells containing untreated cells to allow for plate-to-plate comparisons. The data are shown as mean inhibition of proliferation or growth as a percentage of control cells and are from 2–3 replicate experiments. Resulting dose response curves were subjected to linear regression analysis (Origin by OriginLab, Inc.) for determination of IC50 values.
compound,measurement,setting,value
"Cc1cc(C)c(-n2c3c(n(-c4c(C)cc(C)cc4C)[c]2=[Au-]=[c]2n(-c4c(C)cc(C)cc4C)c4c(n2-c2c(C)cc(C)cc2C)C(=O)c2ccccc2C4=O)C(=O)c2ccccc2C3=O)c(C)c1.[Cl][Ag-][Cl] [Complex 1, [bis(1,3-dimesityl-4,5-naphthoquino-imidazol-2-ylidene)-gold(I)] [silver(I)dichloride]]",E 1/2 a (V) DPV,"[1]; first reduction, semiquinone radical (NQ˙–)",–0.42 V
same,E 1/2 b (V) DPV,"[1]; second reduction, quinone dianion (NQ2–)",–1.31 V
same,"Intracellular Au levels (uptake), in words",[2],identical
same,Fold difference relative to 1,"[3]; A549, ratio of IC50 to that of 1 (Table 2)",1
same,IC50,"[3]; A549 lung cancer cells, MTT, 72 h, read-out: IC50",73 nM
same,IC50,"[3]; Table 3, error = standard error from the mean, read-out: IC50 A549 lung",73 ± 16 nM
